Assay results from ChEMBL document CHEMBL2424536, “Withanolides isolated from Withania somnifera with -glucosidase inhibition” (Med Chem Res, 2013).

Legend:
Saccharomyces sp. [1] = assay: Inhibition of Saccharomyces sp. alpha-glucosidase using p-nitrophenyl a-D-glucopyranoside as substrate at 100 ug/ml by spectrophotometric analysis
[2] = (§1) Inhibition of Saccharomyces sp. alpha-glucosidase using p-nitrophenyl a-D-glucopyranoside as substrate by spectrophotometric analysis
Saccharomyces sp. [3] = assay: as §1

Imax (Saccharomyces sp. [1]) [%]	IC50 [2] [µg/mL]	inhibition (Saccharomyces sp. [3])	IC50 ([2]; read-out: IC50) [µM]	SMILES
94.3	40.65	Dose-dependent effect		CC1=C(C)C(=O)O[C@@H]([C@](C)(O)[C@H]2CC[C@@H]3[C@]2(C)CC[C@H]2[C@@]3(O)[C@H]3O[C@H]3[C@@]3(O)CC=CC(=O)[C@]23C)C1
			422	OC[C@H]1NC[C@H](O)[C@@H](O)[C@@H]1O [DUVOGLUSTAT]
69.7	85.8	Dose-dependent effect		CC1=C(C)C(=O)O[C@@H]([C@](C)(O)[C@H]2CC[C@H]3[C@@H]4CC=C5CC=CC(=O)[C@]5(C)[C@H]4CC[C@]23C)C1
96.1	38.2	Dose-dependent effect		CC1=C(C)C(=O)O[C@@H]([C@](C)(O)C2=CC[C@@]3(O)[C@@H]4CC=C5CC=CC(=O)[C@]5(C)[C@H]4CC[C@]23C)C1
